# According to patent US20240226131A1, “2'-CHLORO-2'-FLUORO-N2-AMINO-N6-M[…] NUCLEOTIDES FOR […]” (priority 2021, published 2024):
# Assays:
# [1] = tested on: Dengue virus (DENV-2), New Guinea C; experiment: microbe, parasite or virus in culture; assay type: cell-based; settings: DENV2, Huh-7, 144 h, read-out: EC50 (concentration required to prevent virus-induced CPE by 50%)
# [2] = tested on: West Nile virus (WN02 Kern 515); experiment: microbe, parasite or virus in culture; assay type: cell-based; settings: Huh-7, 144 h, read-out: EC50 (concentration required to prevent virus-induced CPE by 50%)
# in vitro = settings: human
# [3] = tested on: Yellow Fever virus (YFV 17D); experiment: microbe, parasite or virus in culture; assay type: cell-based; settings: Huh-7, 120 h, read-out: EC50 (concentration required to prevent virus-induced CPE by 50%)
smiles,measurement,setting,value
"CNc1nc(N)nc2c1ncn2[C@@H]1O[C@H](CO[P@@](=O)(N[C@@H](C)C(=O)OC(C)C)Oc2ccccc2)[C@@H](O)[C@]1(F)Cl [Compound 8, (S)-Isopropyl-2-(((S)-(((2R,3R,4S,5R)-5-(2-amino-6-(methylamino)-9H-purin-9-yl)-4-chloro-4-fluoro-3-hydroxytetrahydrofuran-2-yl)methoxy)(phenoxy)phosphoryl)amino) propanoate]",EC50,[1],320 nM
same,EC50,[2],320 nM
same,CC50,in vitro,> 100000 nM
same,EC50,[3],120 nM
